What was measured:
Type in all cases: biochemical
JAK3 = target: T1, JAK3 (Homo sapiens, UniProt P52333); experiment: JAK3 kinase assay (HTRF, inhibition of phosphorylation of a synthetic peptide); conditions: catalytic domain, His-tag; 2 μM ATP (Km); read-out: JAK3 kinase inhibitory activity (EC50)
T1 construct: All four purified enzymes contain only the catalytic domain; His (N); purchased Carna Biosciences, Inc; host or cells: baculovirus expression system
Method in brief: (§1)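 Baculovirus-expressed catalytic domains (GST-JAK1 aa 850-1154, GST-TYK2 aa 871-1187, His-JAK2, His-JAK3) phosphorylate 1 μM biotin-TK peptide 20-30 min at RT in 50 mM Hepes pH 7.0 with ATP at Km: JAK1 7 μM, JAK2 4 μM, JAK3 2 μM, TYK2 13 μM; 0.75% DMSO. Stopped with EDTA, HTRF read overnight.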

JAK1 = target: T2, JAK1 (Homo sapiens, UniProt P23458); experiment: JAK1 kinase assay (HTRF, inhibition of phosphorylation of a synthetic peptide); conditions: catalytic domain aa 850-1154, GST-tag; 7 μM ATP (Km); read-out: JAK1 kinase inhibitory activity (EC50)
T2 construct: JAK1 (aa 850-1154) and TYK2 (aa 871-1187) are expressed with an N-terminally fused GST-tag; GST (N); purchased Carna Biosciences, Inc; host or cells: baculovirus expression system
T2 sequence (P23458 850-1154): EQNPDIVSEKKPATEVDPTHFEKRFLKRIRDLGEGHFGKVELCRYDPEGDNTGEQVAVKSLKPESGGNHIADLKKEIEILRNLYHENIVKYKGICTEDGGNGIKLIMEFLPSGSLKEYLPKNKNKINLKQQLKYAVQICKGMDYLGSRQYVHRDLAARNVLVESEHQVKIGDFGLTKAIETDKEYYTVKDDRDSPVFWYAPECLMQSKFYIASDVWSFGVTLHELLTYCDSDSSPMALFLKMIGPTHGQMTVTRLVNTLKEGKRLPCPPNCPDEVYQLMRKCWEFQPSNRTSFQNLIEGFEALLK
Method in brief: as §1

JAK2 = target: T3, JAK2 (Homo sapiens, UniProt O60674); experiment: JAK2 kinase assay (HTRF, inhibition of phosphorylation of a synthetic peptide); conditions: catalytic domain, His-tag; 4 μM ATP (Km); read-out: JAK2 kinase inhibitory activity (EC50)
T3 construct: All four purified enzymes contain only the catalytic domain; His (N); purchased Carna Biosciences, Inc; host or cells: baculovirus expression system
T3 sequence (O60674 849-1124 limits assumed): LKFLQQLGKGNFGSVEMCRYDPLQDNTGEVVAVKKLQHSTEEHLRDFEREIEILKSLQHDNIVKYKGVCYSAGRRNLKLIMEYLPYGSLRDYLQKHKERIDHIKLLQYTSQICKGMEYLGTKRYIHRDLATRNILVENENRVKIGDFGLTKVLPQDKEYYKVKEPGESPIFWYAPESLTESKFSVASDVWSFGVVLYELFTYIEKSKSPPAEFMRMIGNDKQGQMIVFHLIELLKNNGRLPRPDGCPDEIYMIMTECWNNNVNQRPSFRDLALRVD
Method in brief: as §1

T1 sequence (P52333 822-1111 limits assumed): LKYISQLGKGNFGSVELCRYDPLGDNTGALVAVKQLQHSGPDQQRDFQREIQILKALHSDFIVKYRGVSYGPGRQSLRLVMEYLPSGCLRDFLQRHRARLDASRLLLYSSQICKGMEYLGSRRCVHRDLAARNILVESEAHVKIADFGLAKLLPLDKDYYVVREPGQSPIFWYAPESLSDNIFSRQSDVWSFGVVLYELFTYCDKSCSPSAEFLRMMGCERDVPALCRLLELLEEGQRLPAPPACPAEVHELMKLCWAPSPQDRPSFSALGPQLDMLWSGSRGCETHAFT

EC50 (JAK3) [µM]	EC50 (JAK1) [µM]	EC50 (JAK2) [µM]	Structure (SMILES)
0.1 to 1	0.1 to 1	0.1 to 1	CC(C)(C(=O)N1CCN(c2ncnc3[nH]ccc23)CC2(CC2)C1)c1ccc(Cl)cc1 [Example 269, 2-(4-chlorophenyl)-2-methyl-1-[5-(7H-pyrrolo[2,3-d]pyrimidin-4-yl)-5,8-diazaspiro[2.6]nonan-8-yl]propan-1-one]
0.1 to 1	0.1 to 1	< 0.1	CN1CC(=O)N(CC(=O)N2CCN(c3ncnc4[nH]ccc34)CC3(CC3)C2)C1=O [Example 80, 1-methyl-3-[2-oxo-2-[5-(7H-pyrrolo[2,3-d]pyrimidin-4-yl)-5,8-diazaspiro[2.6]nonan-8-yl]ethyl]imidazolidine-2,4-dione]
0.1 to 1	0.1 to 1	0.1 to 1	Cc1[nH]ncc1C(=O)N1CCN(c2ncnc3[nH]ccc23)CC2(CC2)C1 [Example 206, (5-methyl-1H-pyrazol-4-yl)-[5-(7H-pyrrolo[2,3-d]pyrimidin-4-yl)-5,8-diazaspiro[2.6]nonan-8-yl]methanone]
0.1 to 1	0.1 to 1	< 0.1	O=C(c1ccc(Cl)cc1)N1CCN(c2ncnc3[nH]ccc23)CC2(CC2)C1 [Example 176, (4-chlorophenyl)-[5-(7H-pyrrolo[2,3-d]pyrimidin-4-yl)-5,8-diazaspiro[2.6]nonan-8-yl]methanone]
0.1 to 1	0.1 to 1	< 0.1	CN(C)c1ccc(CC(=O)N2CCN(c3ncnc4[nH]ccc34)CC3(CC3)C2)cc1 [Example 268, 2-(4-dimethylaminophenyl)-1-[5-(7H-pyrrolo[2,3-d]pyrimidin-4-yl)-5,8-diazaspiro[2.6]nonan-8-yl]ethanone]
0.1 to 1	0.1 to 1	0.1 to 1	O=C(c1n[nH]c(Cl)n1)N1CCN(c2ncnc3[nH]ccc23)CC2(CC2)C1 [Example 231, (5-chloro-1H-1,2,4-triazol-3-yl)-[5-(7H-pyrrolo[2,3-d]pyrimidin-4-yl)-5,8-diazaspiro[2.6]nonan-8-yl]methanone]
> 1	> 1	> 1	Cc1nccnc1C(=O)N1CCN(c2ncnc3[nH]ccc23)CC2(CC2)C1 [Example 168, (3-methylpyrazin-2-yl)-[5-(7H-pyrrolo[2,3-d]pyrimidin-4-yl)-5,8-diazaspiro[2.6]nonan-8-yl]methanone]
0.1 to 1	0.1 to 1	0.1 to 1	O=C(c1c[nH]nn1)N1CCCN(c2ncnc3[nH]ccc23)CC12CC2 [Example 205, [5-(7H-pyrrolo[2,3-d]pyrimidin-4-yl)-5,9-diazaspiro[2.6]nonan-9-yl]-(1H-triazol-4-yl)methanone]
0.1 to 1	0.1 to 1	0.1 to 1	O=C(c1ccsn1)N1CCN(c2ncnc3[nH]ccc23)CC2(CC2)C1 [Example 200, isothiazol-3-yl-[5-(7H-pyrrolo[2,3-d]pyrimidin-4-yl)-5,8-diazaspiro[2.6]nonan-8-yl]methanone]
> 1	> 1	> 1	Cc1noc(C)c1C(=O)N1CCCN(c2ncnc3[nH]ccc23)CC12CC2 [Example 199, (3,5-dimethylisoxazol-4-yl)-[5-(7H-pyrrolo[2,3-d]pyrimidin-4-yl)-5,9-diazaspiro[2.6]nonan-9-yl]methanone]
0.1 to 1	0.1 to 1	0.1 to 1	CCCC1=NOC(C(=O)N2CCCN(c3ncnc4[nH]ccc34)CC23CC3)C1 (stereo not drawn) [Example 124, (3-propyl-4,5-dihydroisoxazol-5-yl)-[5-(7H-pyrrolo[2,3-d]pyrimidin-4-yl)-5,9-diazaspiro[2.6]nonan-9-yl]methanone]
0.1 to 1	0.1 to 1	< 0.1	N#Cc1ccccc1CC(=O)N1CCN(c2ncnc3[nH]ccc23)CC2(CC2)C1 [Example 272, 2-[2-oxo-2-[5-(7H-pyrrolo[2,3-d]pyrimidin-4-yl)-5,8-diazaspiro[2.6]nonan-8-yl]ethyl]benzonitrile]
> 1	0.1 to 1	0.1 to 1	Cc1cc(C(=O)N2CCCN(c3ncnc4[nH]ccc34)CC23CC3)ccn1 [Example 172, (2-methyl-4-pyridyl)-[5-(7H-pyrrolo[2,3-d]pyrimidin-4-yl)-5,9-diazaspiro[2.6]nonan-9-yl]methanone]
0.1 to 1	0.1 to 1	0.1 to 1	O=C1CSC(=O)N1CC(=O)N1CCCN(c2ncnc3[nH]ccc23)CC12CC2 [Example 85, 3-[2-oxo-2-[5-(7H-pyrrolo[2,3-d]pyrimidin-4-yl)-5,9-diazaspiro[2.6]nonan-9-yl]ethyl]thiazolidine-2,4-dione]
0.1 to 1	0.1 to 1	< 0.1	O=C(Cc1ccc2ccccc2c1)N1CCN(c2ncnc3[nH]ccc23)CC2(CC2)C1 [Example 265, 2-(2-naphthyl)-1-[5-(7H-pyrrolo[2,3-d]pyrimidin-4-yl)-5,8-diazaspiro[2.6]nonan-8-yl]ethanone]
0.1 to 1	0.1 to 1	0.1 to 1	O=C(CN1CCOC1=O)N1CCN(c2ncnc3[nH]ccc23)CC2(CC2)C1 [Example 81, 3-[2-oxo-2-[5-(7H-pyrrolo[2,3-d]pyrimidin-4-yl)-5,8-diazaspiro[2.6]nonan-8-yl]ethyl]oxazolidin-2-one]
> 1	0.1 to 1	< 0.1	O=C(Cc1ccc(F)cc1)N1CCCN(c2ncnc3[nH]ccc23)CC12CC2 [Example 159, 2-(4-fluorophenyl)-1-[5-(7H-pyrrolo[2,3-d]pyrimidin-4-yl)-5,9-diazaspiro[2.6]nonan-9-yl]ethanone]
> 1	0.1 to 1	0.1 to 1	Cc1cc(C(=O)N2CCN(c3ncnc4[nH]ccc34)CC3(CC3)C2)[nH]n1 [Example 148, (5-methyl-1H-pyrazol-3-yl)-[5-(7H-pyrrolo[2,3-d]pyrimidin-4-yl)-5,8-diazaspiro[2.6]nonan-8-yl]methanone]
0.1 to 1	0.1 to 1	0.1 to 1	O=C(c1cnsc1)N1CCCN(c2ncnc3[nH]ccc23)CC12CC2 [Example 211, isothiazol-4-yl-[5-(7H-pyrrolo[2,3-d]pyrimidin-4-yl)-5,9-diazaspiro[2.6]nonan-9-yl]methanone]
> 1	> 1	> 1	Cc1cc(C(=O)N2CCN(c3ncnc4[nH]ccc34)CC3(CC3)C2)n(C)n1 [Example 143, (2,5-dimethylpyrazol-3-yl)-[5-(7H-pyrrolo[2,3-d]pyrimidin-4-yl)-5,8-diazaspiro[2.6]nonan-8-yl]methanone]
> 1	> 1	0.1 to 1	O=C(c1cncnc1)N1CCN(c2ncnc3[nH]ccc23)CC2(CC2)C1 [Example 160, pyrimidin-5-yl-[5-(7H-pyrrolo[2,3-d]pyrimidin-4-yl)-5,8-diazaspiro[2.6]nonan-8-yl]methanone]
0.1 to 1	0.1 to 1	0.1 to 1	O=C(c1ccc(F)cc1)N1CCN(c2ncnc3[nH]ccc23)CC2(CC2)C1 [Example 113, (4-fluorophenyl)-[5-(7H-pyrrolo[2,3-d]pyrimidin-4-yl)-5,8-diazaspiro[2.6]nonan-8-yl]methanone]
0.1 to 1	0.1 to 1	0.1 to 1	O=C(Cc1cnc[nH]1)N1CCN(c2ncnc3[nH]ccc23)CC2(CC2)C1 [Example 89, 2-(1H-imidazol-5-yl)-1-[5-(7H-pyrrolo[2,3-d]pyrimidin-4-yl)-5,8-diazaspiro[2.6]nonan-8-yl]ethanone]
> 1	> 1	> 1	Cc1ncccc1C(=O)N1CCN(c2ncnc3[nH]ccc23)CC2(CC2)C1 [Example 135, (2-methyl-3-pyridyl)-[5-(7H-pyrrolo[2,3-d]pyrimidin-4-yl)-5,8-diazaspiro[2.6]nonan-8-yl]methanone]
0.1 to 1	0.1 to 1	0.1 to 1	O=C(c1cc[nH]n1)N1CCN(c2ncnc3[nH]ccc23)CC2(CC2)C1 [Example 182, 1H-pyrazol-3-yl-[5-(7H-pyrrolo[2,3-d]pyrimidin-4-yl)-5,8-diazaspiro[2.6]nonan-8-yl]methanone]
> 1	> 1	0.1 to 1	Cc1cncc(C(=O)N2CCN(c3ncnc4[nH]ccc34)CC3(CC3)C2)n1 [Example 169, (6-methylpyrazin-2-yl)-[5-(7H-pyrrolo[2,3-d]pyrimidin-4-yl)-5,8-diazaspiro[2.6]nonan-8-yl]methanone]
0.1 to 1	< 0.1	< 0.1	Cc1nonc1CC(=O)N1CCN(c2ncnc3[nH]ccc23)CC2(CC2)C1 [Example 251, 2-(4-methyl-1,2,5-oxadiazol-3-yl)-1-[5-(7H-pyrrolo[2,3-d]pyrimidin-4-yl)-5,8-diazaspiro[2.6]nonan-8-yl]ethanone]
> 1	> 1	0.1 to 1	Cc1cnccc1C(=O)N1CCCN(c2ncnc3[nH]ccc23)CC12CC2 [Example 138, (3-methyl-4-pyridyl)-[5-(7H-pyrrolo[2,3-d]pyrimidin-4-yl)-5,9-diazaspiro[2.6]nonan-9-yl]methanone]
0.1 to 1	0.1 to 1	< 0.1	O=C(c1cccc(Cl)c1)N1CCCN(c2ncnc3[nH]ccc23)CC12CC2 [Example 179, (3-chlorophenyl)-[5-(7H-pyrrolo[2,3-d]pyrimidin-4-yl)-5,9-diazaspiro[2.6]nonan-9-yl]methanone]
